Source: patent US12121526B2, “Targeting NCCA-ATP channel for organ protection following ischemic episode” (University of Maryland, Baltimore, priority 2007, dated 2024)
“Also recorded” adds a separate entry of the source. Structures can show the parent of a compound that is named as a salt. Where two headings read alike, the source gives them in different places. Each block holds one molecule with its values, some of them ahead of it.

Assays:
[1] = tested on: permanent middle cerebral artery occlusion; conditions: cited from earlier work
[2] = tested on: temporary middle cerebral artery occlusion; conditions: cited from earlier work
NCCa-ATP channel [3] = biological target: T1, NCCa-ATP channel (Rattus norvegicus, UniProt Q09429); experiment: Patch clamp of NCCa-ATP channel in freshly isolated native reactive astrocytes; type: cell-based; conditions: for EC50: read-out: [ATP]1 EC50 (um)
T1 construct: endogenous in cells; host or cells: freshly isolated native reactive astrocytes (NRA/R1 astrocytes) from the hypoxic inner zone of the gliotic capsule in brain
T1 sequence (Q09429 whole entry): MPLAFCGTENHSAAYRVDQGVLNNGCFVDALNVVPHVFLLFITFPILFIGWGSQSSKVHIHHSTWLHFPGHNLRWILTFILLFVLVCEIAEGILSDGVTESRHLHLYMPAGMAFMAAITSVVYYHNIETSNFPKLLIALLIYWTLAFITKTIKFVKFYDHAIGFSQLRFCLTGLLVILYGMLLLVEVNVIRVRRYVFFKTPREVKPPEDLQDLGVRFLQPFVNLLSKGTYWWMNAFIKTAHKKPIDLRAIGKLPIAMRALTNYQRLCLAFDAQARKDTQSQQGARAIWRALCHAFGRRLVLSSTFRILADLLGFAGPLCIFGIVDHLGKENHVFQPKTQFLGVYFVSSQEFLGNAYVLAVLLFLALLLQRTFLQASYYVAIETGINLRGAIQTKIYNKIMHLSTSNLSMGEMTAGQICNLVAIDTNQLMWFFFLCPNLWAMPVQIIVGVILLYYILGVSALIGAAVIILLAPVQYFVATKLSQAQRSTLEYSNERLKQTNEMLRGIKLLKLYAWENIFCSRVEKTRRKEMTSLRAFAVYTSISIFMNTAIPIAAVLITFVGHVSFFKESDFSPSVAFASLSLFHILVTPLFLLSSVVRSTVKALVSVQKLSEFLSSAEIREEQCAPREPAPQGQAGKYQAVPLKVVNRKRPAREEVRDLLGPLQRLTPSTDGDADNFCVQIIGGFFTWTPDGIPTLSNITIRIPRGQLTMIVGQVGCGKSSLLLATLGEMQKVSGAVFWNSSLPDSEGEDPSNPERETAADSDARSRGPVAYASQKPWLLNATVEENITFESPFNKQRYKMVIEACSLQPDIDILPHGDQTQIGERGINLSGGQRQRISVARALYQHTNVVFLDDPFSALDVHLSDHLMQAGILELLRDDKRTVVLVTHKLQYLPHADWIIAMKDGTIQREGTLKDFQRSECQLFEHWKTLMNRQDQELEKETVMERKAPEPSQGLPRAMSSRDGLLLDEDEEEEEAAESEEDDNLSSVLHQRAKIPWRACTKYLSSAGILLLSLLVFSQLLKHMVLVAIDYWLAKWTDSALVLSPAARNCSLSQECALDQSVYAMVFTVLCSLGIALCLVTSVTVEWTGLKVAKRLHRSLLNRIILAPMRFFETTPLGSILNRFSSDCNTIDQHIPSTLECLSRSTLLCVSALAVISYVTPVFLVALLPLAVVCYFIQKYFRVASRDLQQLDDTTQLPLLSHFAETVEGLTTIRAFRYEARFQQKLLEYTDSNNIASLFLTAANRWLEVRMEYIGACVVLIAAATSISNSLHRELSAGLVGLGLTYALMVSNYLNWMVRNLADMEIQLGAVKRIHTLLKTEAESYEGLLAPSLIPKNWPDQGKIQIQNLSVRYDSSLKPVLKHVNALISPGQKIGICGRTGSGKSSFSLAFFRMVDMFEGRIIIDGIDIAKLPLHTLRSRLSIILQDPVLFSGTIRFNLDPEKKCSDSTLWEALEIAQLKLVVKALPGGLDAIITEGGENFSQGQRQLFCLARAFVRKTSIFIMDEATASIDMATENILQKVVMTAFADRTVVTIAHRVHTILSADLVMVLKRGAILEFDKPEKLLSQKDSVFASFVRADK
T1 sequence (Q9ESQ5 whole entry partner): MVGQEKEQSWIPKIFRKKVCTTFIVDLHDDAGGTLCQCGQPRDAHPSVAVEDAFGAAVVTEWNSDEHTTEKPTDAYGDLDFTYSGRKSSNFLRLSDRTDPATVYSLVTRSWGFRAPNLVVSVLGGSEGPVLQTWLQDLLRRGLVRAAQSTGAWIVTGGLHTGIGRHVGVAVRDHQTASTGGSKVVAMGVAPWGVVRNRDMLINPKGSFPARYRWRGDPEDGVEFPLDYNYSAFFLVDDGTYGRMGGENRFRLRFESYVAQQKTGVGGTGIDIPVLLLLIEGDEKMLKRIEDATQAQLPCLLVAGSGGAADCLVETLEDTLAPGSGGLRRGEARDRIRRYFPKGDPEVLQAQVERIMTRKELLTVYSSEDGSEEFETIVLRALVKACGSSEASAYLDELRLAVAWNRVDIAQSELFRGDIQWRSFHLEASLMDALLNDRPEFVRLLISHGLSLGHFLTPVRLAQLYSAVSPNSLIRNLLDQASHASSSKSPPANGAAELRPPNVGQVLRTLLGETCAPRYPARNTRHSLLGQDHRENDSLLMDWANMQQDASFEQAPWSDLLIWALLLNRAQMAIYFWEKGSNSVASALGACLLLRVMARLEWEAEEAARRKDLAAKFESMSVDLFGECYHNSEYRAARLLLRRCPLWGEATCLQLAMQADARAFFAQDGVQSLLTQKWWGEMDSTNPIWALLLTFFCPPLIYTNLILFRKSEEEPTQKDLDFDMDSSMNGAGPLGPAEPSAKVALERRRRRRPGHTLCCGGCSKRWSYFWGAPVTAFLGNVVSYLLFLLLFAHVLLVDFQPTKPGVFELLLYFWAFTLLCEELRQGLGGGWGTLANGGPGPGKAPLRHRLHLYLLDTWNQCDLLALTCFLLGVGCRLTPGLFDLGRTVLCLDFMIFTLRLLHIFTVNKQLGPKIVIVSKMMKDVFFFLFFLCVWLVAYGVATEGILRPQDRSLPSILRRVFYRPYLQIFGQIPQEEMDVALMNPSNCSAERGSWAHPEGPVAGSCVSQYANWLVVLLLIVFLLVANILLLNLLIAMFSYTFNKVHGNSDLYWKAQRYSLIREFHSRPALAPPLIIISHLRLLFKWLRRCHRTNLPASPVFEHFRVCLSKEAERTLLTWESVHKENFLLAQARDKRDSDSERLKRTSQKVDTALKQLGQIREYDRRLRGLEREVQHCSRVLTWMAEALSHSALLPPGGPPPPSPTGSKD
Excerpt: The NCCa-ATP channel is a 35 pS cation channel that conducts all inorganic monovalent cations (Na^+, K^+, Cs^+, Li^+, Rb^+), but is impermeable to Ca^2+ and Mg^2+ (Chen and Simard, 2001). […] Studies using a variety of organic monovalent cations indicate that the channel has an equivalent pore radius of 0.41 nm.
The NCCa-ATP channel is believed to be composed of pore-forming and regulatory subunits. The regulatory subunit is sulfonylurea receptor 1 (SUR1), the same as that for KATP channels in pancreatic β cells (Chen et al., 2003), and so NCCa-ATP and pancreatic KATP channels have pharmacological profiles that resemble each other closely. […] Knockdown of SUR1 using antisense-oligodeoxynucleotide reduces SUR1 expression (Simard et al., 2006) and prevents expression of functional NCCa-ATP channels.

NCCa-ATP channel [4] = biological target: T1, NCCa-ATP channel; conditions: cited from earlier work
[5] = biological target: T2, SUR1-regulated NCCa-ATP channel (Homo sapiens, UniProt Q09428); experiment: Patch clamp of cultured human aortic endothelial cells after hypoxia; type: cell-based
T2 construct: cultured endothelial cells from human aorta (ScienCell, SanDiego CA) were also studied; host or cells: human aortic endothelial cells (HAEC) cultured under hypoxia (1% O2)
Excerpt: In addition to studying freshly isolated capillary endothelial cells from rat spinal cord, cultured endothelial cells from human aorta (ScienCell, SanDiego CA) were also studied. The purpose with these studies was to investigate whether hypoxia/ischemia can lead to up-regulation of the SUR1-regulated NCCa-ATP channels in endothelial cells, a finding that was previously reported for astrocytes and neurons (Chen et al., 2003; Simard et al., 2006), but not endothelial cells. Endothelial cells were cultured under normoxic (room air) and hypoxic (1% 02) conditions. Cells cultured under both conditions were immunolabeled for SUR1, the regulatory subunit of both KATP and NCCa-ATP channels.
The diazoxide-induced current (difference current in FIG. 15A) reversed at E(K) consistent with an SUR1-regulated KATP channel current.
Inside-out patches from cells maintained under hypoxic conditions were also studied. […]
Patch clamp of endothelial cells was performed using a nystatin-perforated patch technique, to maintain the metabolic integrity of the cells. The identity of the activated channel can be assessed by measurement of the “reversal potential”, the potential at which an ion channel current reverses from inward to outward. […]

[6] = biological target: receptor-mediated Ca2+ entry; conditions: cited from earlier work
global cerebral ischemia = conditions: in vivo; cited from earlier work
[7] = tested on: freshly isolated reactive astrocytes; conditions: cited from earlier work; for Cell blebbing: glibenclamide with 1 mM Na azide, diazoxide alone without ATP depletion
[8] = tested on: isolated retina of chick embryo; conditions: glucose/oxygen deprivation or excitotoxic conditions; cited from earlier work
recombinant MMP = experiment: Zymography of gelatinase activity of recombinant MMP; type: biochemical; conditions: glibenclamide 10 μM; MMP-inhibitor II 300 nM
Excerpt: In stroke, hemorrhagic conversion has been attributed to activation of matrix metalloproteinases (MMP) (Gidday et al., 2005; Justicia et al., 2003; Lorenzl et al., 2003; Romanic et al., 1998). […] This was studied directly using zymography of recombinant MMPs.

NCCa-ATP channels = experiment: Nystatin-perforated patch clamp of hypoxic endothelial cells, current activated by Na+ azide; type: cell-based, human; conditions: 1 μM; hypoxic conditions
Procedure: Patch clamp of endothelial cells was performed using a nystatin-perforated patch technique, to maintain the metabolic integrity of the cells. The identity of the activated channel can be assessed by measurement of the “reversal potential”, the potential at which an ion channel current reverses from inward to outward. With physiologically relevant concentrations of ions intracellularly and extracellularly (high potassium inside, high sodium outside), the reversal potential can unambiguously distinguish between a K^+ channel current such as KATP, which reverses negative to −50 mV and a non-selective cation channel current such as NCCa-ATP, which reverses near 0 mV.
Channel activation was also studied upon induction by Na^+ azide, a […] that depletes cellular ATP (Chen and Simard, 2001).

[9] = tested on: stroke induced by thromboemboli; conditions: constant infusion 75-200 ng/h; cited from earlier work
[10] = tested on: freshly isolated reactive astrocytes; conditions: 1 mM Na azide; 1 μM glibenclamide; cited from earlier work
[11] = tested on: large MCA stroke associated with malignant cerebral edema; conditions: cited from earlier work
[12] = tested on: cervical spinal cord contusion injury; experiment: Rat cervical hemi-cord contusion spinal cord injury model; type: in vivo
Excerpt: The cervical contusion SCI model that is used is that of Soblosky et al. (2001). Adult female Long-Evans rats are anesthetized (Ketamine and Xylazine) and a hemilaminectomy is made at C4-5 to expose the dura. A hemi-cervical spinal cord contusion is created using a blunt force impactor (see details below “The model of contusion SCI”).
To generate the injury for the data shown here, the impactor was activated using a 10-gm weight dropped from 2.5 cm.
Animals were sacrificed at ¾ hr and 24 hr after contusion SCI (n=5 rats per group), they were perfused with heparinized saline to remove intravascular blood, and 5-mm segments of cord encompassing the lesion were homogenized and processed using Drabkin's reagent to convert hemoglobin to cyanomethemoglobin for spectrophotometric measurements (Choudhri et al., 1997).
Animals underwent the same SCI as above, and immediately after, were implanted with mini-osmotic pumps (Alzet 2002, 14 day pump, […]; Durect Corporation, Cupertino, CA) that delivered either saline or drug s.q.
Spinal cords were examined 24 hr after SCI. […] In other rats, […] sections of cord were harvested that encompassed the contusion site and we quantified the amount of blood present in tissues after removal of intravascular blood by perfusion at time of euthanasia (n=5-6 rats per group).
As previously described (Gensel et al., 2006), rats were placed in a glass cylinder to which they had not been previously exposed. A peanut butter treat was placed 8 inches above the floor, and the number of seconds spent with both front paws elevated above shoulder-height was counted during a 3-min period of observation.

transient focal ischemia = conditions: pre- or post-ischemic administration; cited from earlier work
permanent MCAO = conditions: given 30 min after initiation of permanent MCAO; cited from earlier work
[13] = after 6 h of vascular occlusion
[14] = Membrane Preparation derived from freshly isolated native reactive astrocytes

Compound: COc1cc2c(cc1OC)C(C(C(=O)N(CCc1ccc(OC)c(OC)c1OC)CCc1ccc(OC)c(OC)c1OC)c1ccccc1)=NCC2 (racemic) [pinokalant, (R,S)-(3,4-dihydro-6,7-dimethoxy-isoquinoline-1-yl)-2-phenyl-N,N-di[2-(2,3,4-trimethoxyphenyl)ethyl]-acetamide]
Blood flow [1, 13]: significantly higher
Reduction of the volume of ATP-depleted and morphologically injured tissue (infarct core) [1, 13]: 60-70%
Decrease of ADC lesion volume ([1]; initial 6 h of vascular occlusion, untreated increased by approximately 50%): approximately 20%
DWI-derived infarct volume ([2]; 4 h after MCAO): significantly smaller
Neurological scores ([2]; at 24 h): significantly better
TTC-derived infarct volume ([2]; postmortem): significantly attenuated

Effect on channel (NCCa-ATP channel [3]; [14]): No channel effect
Effect on channel (NCCa-ATP channel [3]; Reactive Astrocytes): No channel effect
Compound: Nc1ncnc2c1ncn2[C@@H]1O[C@H](COP(=O)(O)OP(=O)(O)O)[C@@H](O)[C@H]1O [ADP]
Effect on channel opening (NCCa-ATP channel [4]): unaffected

Effect on channel (NCCa-ATP channel [3]; [14]): No channel effect
Effect on channel (NCCa-ATP channel [3]; Reactive Astrocytes): No channel effect
Compound: Nc1ncnc2c1ncn2[C@@H]1O[C@H](COP(=O)(O)O)[C@@H](O)[C@H]1O [AMP]
Effect on channel opening (NCCa-ATP channel [4]): unaffected

EC50 (NCCa-ATP channel [3]; [14]): 790 nM
EC50 (NCCa-ATP channel [3]; Reactive Astrocytes): 790 nM
Single channel openings in inside-out patches ([5]; 20 μM in the bath, hypoxic cells, Cs+ as cation): inhibited
Compound: Nc1ncnc2c1ncn2[C@@H]1O[C@H](COP(=O)(O)OP(=O)(O)OP(=O)(O)O)[C@@H](O)[C@H]1O [ATP]
EC50 (NCCa-ATP channel [4]; read-out: Block of channel opening, EC50): 790 nM

Compound: COc1ccc(CCCOC(Cn2ccnc2)c2ccc(OC)cc2)cc1 (stereo not drawn) [SKF 96365, 1-(beta-[3-(4-methoxy-phenyl)propoxy]-4-methoxyphenethyl)-1H-imidazole hydrochloride]
IC50 [6]: ~10000 nM

Compound: COc1cc(CNC(=O)CCCC/C=C/C(C)C)ccc1O [capsaicin]
Electroencephalographic changes, hyperlocomotion and memory impairment induced by global ischemia (global cerebral ischemia): antagonize

Compound: Oc1cc2c(cc1O)CN(C(=S)NCCc1ccc(Cl)cc1)CCC2 [capsazepine]
Effect on rimonabant-induced and capsaicin-induced neuroprotective effects (global cerebral ischemia): reversed

Compound: CC1=NS(=O)(=O)c2cc(Cl)ccc2N1 [diazoxide]
Membrane current, reversing near 0 mV ([5]; cells maintained under hypoxic conditions): significantly increased; also recorded: activated an ohmic current
Block or opening of the NCCa-ATP channel (NCCa-ATP channel [4]): opened
Channel opening in the presence of ATP (NCCa-ATP channel [4]; in the presence of ATP): increased
Cell blebbing [7]: reproduced

Compound: O=C(O)c1ccccc1Nc1cccc(C(F)(F)F)c1 [flufenamic acid]
Protection of retina against ischemic or excitotoxic insult [8]: protected

Compound: COc1ccc(Cl)cc1C(=O)NCCc1ccc(S(=O)(=O)NC(=O)NC2CCCCC2)cc1 [glibenclamide]
Gelatinase activity (recombinant MMP): the same
Ohmic current activated by Na+ azide-induced ATP depletion (NCCa-ATP channels): blocked
Reduction of lesion volume / stroke size [9]: reduced by half
Membrane depolarization ([7]; cells exposed to Na+ azide to deplete ATP): blocks
Cell blebbing [7]: significantly reduces; also recorded: completely prevented; also recorded: blocked
Necrotic cell death induced by Na azide [10]: significantly reduced; also recorded: significant reduced
Reduction of mortality ([11]; constant infusion 75-200 ng/h): by half
7-day mortality ([11]; control rats 68%, n=29 in each group): 28%
Reduction of cerebral edema / ionic edema (excess water) ([11]; low-dose, post-ischemic): reduced by half
Hemorrhage at the contusion site ([12]; 24 hr after SCI, 75 ng/hr s.q.): significantly reduced; also recorded: less prominent
Blood in 6-mm cord segment encompassing the contusion ([12]; 24 hr after SCI, 75 ng/hr s.q., vehicle 1.9±0.02): 0.9 ± 0.2 µL
Neurological function (rearing behavior) ([12]; 24 hr after injury, 3-min observation): significant neurological functional improvement; also recorded: significantly better; also recorded: improves neurological function

Compound: Cc1ccc(Cl)c(Nc2ccccc2C(=O)O)c1Cl [meclofenamic acid]
Protection of retina against ischemic or excitotoxic insult [8]: protected

Compound: Cc1cccc(Nc2ccccc2C(=O)O)c1C [mefenamic acid]
Protection of retina against ischemic or excitotoxic insult [8]: protected
Neuroprotection (necrosis in cortex and subcortical structures) (transient focal ischemia): no neuroprotection

Compound: CCOc1cc(CC(=O)N[C@@H](CC(C)C)c2ccccc2N2CCCCC2)ccc1C(=O)O [repaglinide]
Block or opening of the NCCa-ATP channel (NCCa-ATP channel [4]): blocked

Compound: Cc1c(C(=O)NN2CCCCC2)nn(-c2ccc(Cl)cc2Cl)c1-c1ccc(Cl)cc1 [rimonabant]
Reduction of infarct volume (permanent MCAO): ~40%
Electroencephalographic changes, hyperlocomotion and memory impairment induced by global ischemia (global cerebral ischemia): antagonize
